From patent US20050164370A1 (priority 2003, published 2005)

Columns and labels:
[1] = test system: transformed cells TM182-AHK2-CYC1IPT4; test: Liquid culture of transformed cell TM182-AHK2-CYC1IPT4 with examinee substance, absorbance; format: cell-based, yeast; conditions: Table 4, TM182-AHK2-CYC1-IPT4, 1 μL of 200 ppm DMSO solution per 100 μL, DOHLU+Glu, 30° C. for 24 hours
Experimental: The thus obtained culture solutions were diluted with DOHLU+Glu culture medium so that OD600 became 0.200, and then the diluted ones were further diluted with DOHLU+Glu culture medium at a dilution rate of 1/200 to obtain diluted pre-cultured solutions.
A 96-well assay plate was prepared by filling each well with 1 μL of a DMSO solution of an examinee substance (Abscisic acid or 6-Benzyl aminopurine). In this regard, it is to be noted that the DMSO solution of a examinee substance was prepared so that the concentration thereof became 200 ppm. Simultaneously, an assay plate was prepared by filling each well with 1 μL of DMSO as a blank section.
Each of the diluted pre-cultured solutions was added in a volume of 100 μL per each well of both of the assay plates, and was cultured at 30° C. for 24 hours. After incubation, the turbidity of each well was measured using a plate reader. The absorbance (OD600) of each of the culture solutions of the transformed cells containing the examinee substance was shown in Table 4. […] Further, the growth speeds of the transformed cells TM182-CRE1-ADHIPT4, TM182-AHK2-CYC1IPT4, TM182-AHK2-CYC1IPT5 and TM182-AHK2-ADHIPT5 in the culture medium to which 6-Benzyl aminopurine was added were faster than those in the culture medium to which only DMSO was added.

[2] = target: T1, cytokinin receptor AHK2Δ (Arabidopsis thaliana, UniProt Q9C5U2); format: cell-based, yeast; parameters: added initiator methionine (ATG added at the 5' end) (N); expressed in transfected cells; host or cells: yeast strain TM182 carrying plasmid p415CYC-AHK2Δ (pHM-1 backbone, CYC1 promoter); conditions: TM182-AHK2Δ, examinee substance 100 μM, DOLU+Glu, 30° C. for 24 hours
T1 sequence (Q9C5U2 196-1176): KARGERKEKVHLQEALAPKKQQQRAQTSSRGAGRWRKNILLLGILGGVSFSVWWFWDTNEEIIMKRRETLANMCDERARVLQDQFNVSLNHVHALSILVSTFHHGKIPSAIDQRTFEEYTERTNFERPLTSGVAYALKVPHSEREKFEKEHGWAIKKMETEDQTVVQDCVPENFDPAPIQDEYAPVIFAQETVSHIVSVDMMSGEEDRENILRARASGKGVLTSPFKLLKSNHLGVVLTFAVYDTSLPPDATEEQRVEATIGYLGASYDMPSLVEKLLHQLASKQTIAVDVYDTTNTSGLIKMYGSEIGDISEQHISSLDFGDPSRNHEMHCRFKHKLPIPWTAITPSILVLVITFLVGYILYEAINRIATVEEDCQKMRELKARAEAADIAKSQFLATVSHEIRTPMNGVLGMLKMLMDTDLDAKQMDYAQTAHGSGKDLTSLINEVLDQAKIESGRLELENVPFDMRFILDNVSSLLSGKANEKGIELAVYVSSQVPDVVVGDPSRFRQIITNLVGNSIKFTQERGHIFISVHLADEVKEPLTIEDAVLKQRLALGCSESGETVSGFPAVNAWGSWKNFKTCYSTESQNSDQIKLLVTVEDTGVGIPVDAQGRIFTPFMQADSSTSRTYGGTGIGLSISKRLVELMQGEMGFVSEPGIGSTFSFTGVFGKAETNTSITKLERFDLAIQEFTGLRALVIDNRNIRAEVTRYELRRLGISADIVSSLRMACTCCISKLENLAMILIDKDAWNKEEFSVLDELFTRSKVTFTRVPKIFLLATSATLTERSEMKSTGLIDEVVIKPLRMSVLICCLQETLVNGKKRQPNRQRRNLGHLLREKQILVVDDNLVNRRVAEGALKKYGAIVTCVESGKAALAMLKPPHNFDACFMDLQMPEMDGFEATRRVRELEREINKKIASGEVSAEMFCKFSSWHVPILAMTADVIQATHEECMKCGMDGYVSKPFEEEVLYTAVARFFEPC
Experimental: The transformed cells TM182-AHK2, TM182-AHK2Δ and TM182-AHK3 produced in the reference example 1 were inoculated in 200 ml of DOLU+Gal culture media and pre-cultured at 30° C. for 36 hours. The pre-cultured solutions were diluted with DOLU+Glu media as to become 0.100 as the optical density (OD600) and further the resultants were diluted with DOLU+Glu media at a dilution rate of 1/200 to obtain diluted pre-cultured solutions.
An assay plate was prepared by filling respective wells of a 96-well plate with 20 μl of solutions which were prepared by diluting DMSO solution (10 mM) of each examinee substance with DOLU+Glu medium at a dilution rate of 1/100, said solutions containing each examinee substance to be […]. […]
The diluted pre-cultured solutions were added in 200 μl each into the respective wells of both assay plates and cultured at 30° C. for 24 hours and then the optical density (OD620) of each well was measured by a plate reader. The agonist-activity of the examinee substances to the cytokinin receptor was detected by comparing the optical density measured in the testing sections to which the examinee substances were added with the optical density measured in the blank sections.

[3] = test system: transformed cells TM182-AHK2-ADHIPT5; conditions: TM182-AHK2-ADHIPT5, DOHLU+Glu agar containing 10 μM trans-zeatin, 30° C. for 30 hours
Experimental: (§1) After incubation, the growth state of the transformed cells was observed and photographed by a digital camera.

[4] = test system: transformed cells TM182-CRE1-ADHIPT4; conditions: TM182-CRE1-ADHIPT4, DOHLU+Glu agar containing 10 μM trans-zeatin, 30° C. for 30 hours
Experimental: as §1

[5] = test system: transformed cells TM182-CYC1-ADHIPT4; conditions: TM182-CYC1-ADHIPT4, DOHLU+Glu agar containing 10 μM trans-zeatin, 30° C. for 30 hours
Experimental: as §1

[6] = test system: transformed cells TM182-CYC1-CYC1IPT4; conditions: TM182-CYC1-CYC1IPT4, DOHLU+Glu agar containing 10 μM trans-zeatin, 30° C. for 30 hours
Experimental: as §1

[7] = test system: transformed cells TM182-CYC1-CYC1IPT5; conditions: TM182-CYC1-CYC1IPT5, DOHLU+Glu agar containing 10 μM trans-zeatin, 30° C. for 30 hours
Experimental: as §1

Row | Structure (SMILES) | absorbance (OD600) of the culture solution [1] | optical density (OD620) of the culture solution [2] | growth state of the transformed cells [3] | growth state of the transformed cells [4] | growth state of the transformed cells [5] | growth state of the transformed cells [6] | growth state of the transformed cells [7]
1 | CC1=CC(=O)CC(C)(C)[C@@]1(O)/C=C/C(C)=C\C(=O)O [Compound A, Abscisic acid] | 0.194 | 0 |  |  |  |  | 
2 | c1ccc(CNc2ncnc3nc[nH]c23)cc1 [Compound B, 6-Benzyl aminopurine] | 0.339 | 0.89 |  |  |  |  | 
3 | C/C(=C\CNc1ncnc2nc[nH]c12)CO [trans-zeatin] |  |  | observed to grow | observed to grow | not observed to grow | not observed to grow | not observed to grow
